Laboratory results taken from patent US7294639B2, “Biaromatic ligand activators of PPARγ receptors” (Galderma Research & Development, priority 2001, dated 2007).

How the values were obtained:
[1] = target: T1, chimeric Gal-PPARγ receptor (LBD) (Homo sapiens, UniProt P37231); experiment: Transactivation test, PPARγ agonist activity (luciferase); type: cell-based; details: concentration giving 50% activation relative to the reference agonist
T1 construct: chimeric Gal-PPARγ receptor (LBD); expressed in transfected cells; host or cells: HeLa cells, stably transfected
T1 sequence (P37231 238-503 limits assumed): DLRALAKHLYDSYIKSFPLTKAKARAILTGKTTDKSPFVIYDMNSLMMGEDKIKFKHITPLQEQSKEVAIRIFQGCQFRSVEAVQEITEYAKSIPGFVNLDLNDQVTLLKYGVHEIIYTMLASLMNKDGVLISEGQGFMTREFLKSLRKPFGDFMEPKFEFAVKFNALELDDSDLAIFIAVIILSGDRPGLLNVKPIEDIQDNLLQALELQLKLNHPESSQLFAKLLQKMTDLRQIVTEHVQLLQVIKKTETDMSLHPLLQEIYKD
Protocol: The agonist activity towards the PPARγ receptors of the compounds according to the invention may be evaluated by transactivation tests.
The capacity of the molecules to activate and/or inhibit the PPARγ receptors is evaluated from Hela cells stably transfected with the chimeric Gal-PPARγ receptor (LBD).
96-well plates are inoculated at the rate of 10000 cells/100 μl/well in DMEM 10% SDL medium and then placed for 24 hours at 37° C., 7% CO2.
To determine the PPARγ agonist activity, the cells are then treated by addition of 5 μl/well of the molecules to be tested at the final concentration of 1 μM. Cells are also treated in parallel with a reference agonist, (−)-3-{4-[2-(benzooxazol-2-ylmethylamino)ethoxy]phenyl}-2-ethoxypropionic acid, 1 μM.
After another incubation of 24 hours at 37° C., 7% CO2, a luciferase assay is carried out with the aid of the “Steady-Glo Luciferase Assay System” kit from Promega. The luminescence is counted on a Microbeta Trilux microplate reader (Wallac).
The agonist activity of the test product will be expressed as a percentage activation relative to the control agonist, the reference agonist at 1 μM.
The AC50, expressed in nM, is determined as the concentration which makes it possible to obtain 50% activation of the basal signal relative to the reference agonist.

human PPARγ receptor = target: T2, human PPARγ receptor (Homo sapiens, UniProt P37231); experiment: Binding test by competition with tritiated reference agonist (hydroxyapatite gel); details: hPPARγ/RXRα heterodimers from SF9 insect cells
T2 construct: made in house; host or cells: SF9 insect cells, recombinant baculovirus
Protocol: The affinity of the compounds of the invention for the human PPARγ receptor was determined in a test of binding, by competition for the attachment of a reference agonist, the following tritiated compound 5-{4-[2-(methylpyridin-2-ylamino)ethoxy]benzyl}thiazolidine-2,4-dione.
The receptors are obtained by infecting SF9 insect cells with a recombinant bacculovirus. They exist in the form of hPPARγ/RXRα heterodimers. The presence of RXRα increases the solubility and the stability of the hPPARγ receptor and, consequently, its biological activity, without as a result interfering in the determination of the binding constants.
The technique of adsorption on hydroxyapatite gel was used to separate the ligand bound to the receptor from the free ligand. The results are expressed as Kd value (nM) which represents the dissociation constant at equilibrium obtained for each compound.

T2 sequence (P19793 whole entry): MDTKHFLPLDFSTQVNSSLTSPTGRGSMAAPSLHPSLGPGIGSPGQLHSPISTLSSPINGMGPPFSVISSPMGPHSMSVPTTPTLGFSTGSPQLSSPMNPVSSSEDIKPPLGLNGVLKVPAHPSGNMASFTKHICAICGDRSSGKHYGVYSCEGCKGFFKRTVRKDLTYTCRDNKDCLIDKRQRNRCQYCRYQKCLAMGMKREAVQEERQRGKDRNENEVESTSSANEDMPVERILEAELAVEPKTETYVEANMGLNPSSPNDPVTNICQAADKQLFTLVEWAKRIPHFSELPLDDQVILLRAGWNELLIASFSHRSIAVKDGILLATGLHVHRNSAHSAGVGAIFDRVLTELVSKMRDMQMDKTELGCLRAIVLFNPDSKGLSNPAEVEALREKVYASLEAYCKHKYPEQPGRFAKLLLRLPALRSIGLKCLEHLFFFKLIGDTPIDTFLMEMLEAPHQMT
T2 sequence (P37231 whole entry): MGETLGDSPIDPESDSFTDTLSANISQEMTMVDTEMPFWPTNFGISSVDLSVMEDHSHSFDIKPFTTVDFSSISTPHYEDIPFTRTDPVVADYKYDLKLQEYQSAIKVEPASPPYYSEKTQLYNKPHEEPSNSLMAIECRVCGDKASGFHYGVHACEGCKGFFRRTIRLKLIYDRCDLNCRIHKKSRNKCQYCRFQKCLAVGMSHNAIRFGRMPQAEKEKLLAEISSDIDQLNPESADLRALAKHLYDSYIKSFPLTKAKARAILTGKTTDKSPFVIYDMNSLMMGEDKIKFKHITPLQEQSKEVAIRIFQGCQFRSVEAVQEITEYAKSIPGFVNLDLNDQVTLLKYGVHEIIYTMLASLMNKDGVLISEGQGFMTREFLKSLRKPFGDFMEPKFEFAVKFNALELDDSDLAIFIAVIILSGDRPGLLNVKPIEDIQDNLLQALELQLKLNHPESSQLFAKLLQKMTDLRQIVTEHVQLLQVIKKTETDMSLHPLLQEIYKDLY

Compound	AC50 [1] [nM]	Kd (human PPARγ receptor) [nM]
COC(=O)CCCCCCCCC(=O)N(C)Cc1cccc(-c2ccc(CC3SC(=O)NC3=O)cc2)c1 (centres unmarked) [Example 2, methyl 9-{[4′-(2,4-dioxothiazolidin-5-ylmethyl)biphenyl-3-ylmethyl]methylcarbamoyl}nonanoate]	55.5	–
COC(=O)c1ccc(C(=O)N(C)Cc2cccc(-c3ccc(CC4SC(=O)NC4=O)cc3)c2)cc1 (centres unmarked) [Example 3, methyl N-[4′-(2,4-dioxothiazolidin-5-ylmethyl)biphenyl-3-ylmethyl]-N-methylterephthalamate]	13.1	375
CN(Cc1cccc(-c2ccc(CC3SC(=O)NC3=O)cc2)c1)C(=O)CCC1CCCC1 (centres unmarked) [Example 4, 3-cyclopentyl-N-[4′-(2,4-dioxothiazolidin-5-ylmethyl)biphenyl-3-ylmethyl]-N-methylpropionamide]	24.2	250
CN(Cc1cccc(-c2ccc(CC3SC(=O)NC3=O)cc2)c1)C(=O)c1cccc2ccccc12 (centres unmarked) [Example 5, N-[4′-(2,4-dioxothiazolidin-5-ylmethyl)biphenyl-3-ylmethyl]-N-methylnaphthalene-1-carboxamide]	23.3	500
CN(Cc1cccc(-c2ccc(CC3SC(=O)NC3=O)cc2)c1)C(=O)c1ccc2ccccc2c1 (centres unmarked) [Example 6, N-[4′-(2,4-dioxothiazolidin-5-ylmethyl)biphenyl-3-ylmethyl]-N-methylnaphthalene-2-carboxamide]	4	60
CN(Cc1cccc(-c2ccc(CC3SC(=O)NC3=O)cc2)c1)C(=O)COc1ccccc1 (centres unmarked) [Example 7, N-[4′-(2,4-dioxothiazolidin-5-ylmethyl)biphenyl-3-ylmethyl]-N-methyl-2-phenoxyacetamide]	63.8	–
CN(Cc1cccc(-c2ccc(CC3SC(=O)NC3=O)cc2)c1)C(=O)c1cccn1C (centres unmarked) [Example 8, N-[4′-(2,4-dioxothiazolidin-5-ylmethyl)biphenyl-3-ylmethyl]-N-methyl-1-methyl-1H-pyrrole-2-carboxamide]	307	–
CN(Cc1cccc(-c2ccc(CC3SC(=O)NC3=O)cc2)c1)C(=O)C12CC3CC(CC(C3)C1)C2 (centres unmarked) [Example 9, N-[4′-(2,4dioxothiazolidin-5-ylmethyl)biphenyl-3-ylmethyl]-N-methyladamantane-1-carboxamide]	182	–
CN(Cc1cccc(-c2ccc(CC3SC(=O)NC3=O)cc2)c1)C(=O)c1ccc(-c2ccccc2)cc1 (centres unmarked) [Example 10, N-[4′-(2,4-dioxothiazolidin-5-ylmethyl)biphenyl-3-ylmethyl]-N-methylbiphenyl-4-carboxamide]	3.3	60
CN(Cc1cccc(-c2ccc(CC3SC(=O)NC3=O)cc2)c1)C(=O)c1cc2ccccc2s1 (centres unmarked) [Example 11, N-[4′-(2,4-dioxothiazolidin-5-ylmethyl)biphenyl-3-ylmethyl]-N-methylbenzo[b]thio-phene-2-carboxamide]	15.1	375
CN(Cc1cccc(-c2ccc(CC3SC(=O)NC3=O)cc2)c1)C(=O)CCCCC(=O)c1ccccc1 (centres unmarked) [Example 12, N-[4′-(2,4-dioxothiazolidin-5-ylmethyl)biphenyl-3-ylmethyl]-N-methyl-6-oxo-6-phenylhexanamide]	3.2	60
CN(Cc1cccc(-c2ccc(CC3SC(=O)NC3=O)cc2)c1)C(=O)c1ccc(N(C)C)c2ccccc12 (centres unmarked) [Example 13, 4dimethylamino-N-[4′-(2,4-dioxothiazolidin-5-ylmethyl)biphenyl-3-ylmethyl]-N-methylnaphthalene-1-carboxamide]	36.7	500
CN(Cc1cccc(-c2ccc(CC3SC(=O)NC3=O)cc2)c1)C(=O)c1ccc(S(C)(=O)=O)cc1 (centres unmarked) [Example 14, N-[4′-(2,4-dioxothiazolidin-5-ylmethyl)biphenyl-3-ylmethyl]-4-methanesulphonyl-N-methylbenzamide]	143	–
CN(Cc1cccc(-c2ccc(CC3SC(=O)NC3=O)cc2)c1)C(=O)c1ccc(C(=O)c2ccccc2)cc1 (centres unmarked) [Example 15, N-[4′-(2,4-dioxothiazolidin-5-ylmethyl)biphenyl-3-ylmethyl]-N-methyl-4-(1-phenylmethanoyl)benzamide]	5	60
COCCOCOc1ccc2cc(C(=O)N(C)Cc3cccc(-c4ccc(CC5SC(=O)NC5=O)cc4)c3)ccc2c1 (centres unmarked) [Example 16, 6-(2-methoxyethoxymethoxy)-N-[4′-(2,4-dioxothiazolidin-5-ylmethyl)biphenyl-3-ylmethyl]-N-methylnapthalene-2-carboxamide]	0.55	4
CN(Cc1cccc(-c2ccc(CC3SC(=O)NC3=O)cc2)c1)C(=O)c1ccc2cc(O)ccc2c1 (centres unmarked) [Example 17, 6-hydroxy-N-[4′-(2,4-dioxothiazolidin-5-ylmethyl)biphenyl-3-ylmethyl]-N-methylnaphthalene-2-carboxamide]	3.8	15
CSc1ccc(C(=O)N(C)Cc2cccc(-c3ccc(CC4SC(=O)NC4=O)cc3)c2)cc1 (centres unmarked) [Example 18, N-[4′-(2,4-dioxothiazolidine-5-ylmethyl)biphenyl-3-ylmethyl]-N-methyl-4-methylsulphanylbenzamide]	42.5	–
CCO[C@@H](Cc1ccc(-c2cccc(CN(C)C(=O)c3ccc(-c4ccccc4)cc3)c2)cc1)C(=O)O [Example 19, (S)-3-(3′-{[(1-biphenyl-4-ylmethanoyl)methylamino]methyl}biphenyl-4-yl)-2-ethoxypropionic acid]	2.9	8
CCO[C@@H](Cc1ccc(-c2cccc(CN(C)C(=O)CCCCC(=O)c3ccccc3)c2)cc1)C(=O)O [Example 20, (S)-2-ethoxy-3-(3′-{[methyl(6-oxo-6-phenylhexanoyl)amino]methyl}biphenyl-4-yl)propionic acid]	7.7	9.5
CN(C(=O)Nc1ccc2ccccc2c1)c1cccc(-c2ccc(CC3SC(=O)NC3=O)cc2)c1 (centres unmarked) [Example 21, 1-[4′-(2,4-dioxothiazolidin-5-ylmethyl)biphenyl-3-yl]-1-methyl-3-naphthalen-2-ylurea]	22	–
CN(C)c1ccc(NC(=O)N(C)c2cccc(-c3ccc(CC4SC(=O)NC4=O)cc3)c2)cc1 (centres unmarked) [Example 22, 3-(4-dimethylaminophenyl)-1-[4′-(2,4-dioxothiazolidin-5-ylmethyl)biphenyl-3-yl]-1-methylurea]	4.2	–
CCO[C@@H](Cc1ccc(-c2cccc(CN(C)C(=O)c3ccc4cc(OCOCCOC)ccc4c3)c2)cc1)C(=O)O [Example 23, (S)-2-ethoxy-3-{3′-[({1-[6-(2-methoxyethoxymethoxy)naphthalen-2-yl]methanoyl}methylamino)methyl]biphenyl-4-yl}propionic acid]	1	–
